Where “and” joins values, the source holds several entries; their conditions need not be identical. Equal values may be shown once. Inconclusive results and toxic doses are left out. Rule for the calls: active = survival T/C of 150% or more; inactive = T/C below 125% in these data.
Tested on: BDF1 mice, P388 leukemia ip, median survival T/C
Assay: NCI In Vivo Anticancer Drug Screen. Data for tumor model P388 Leukemia (intraperitoneal) in B6D2F1 (BDF1) mice
Details: endpoint: median survival time, higher = longer survival
How it was run: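 Steps: implant the tumour, treat one group with compound and another with vehicle, record survival, then divide treated by control.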

[1] = dose: 6.25 mg/kg/injection, schedule: Q01DX009 (ip), vehicle: saline
[2] = dose: 25.0 mg/kg/injection, schedule: Q01DX009 (ip), vehicle: saline
[3] = dose: 50.0 mg/kg/injection, schedule: Q01DX009 (ip), vehicle: saline
[4] = dose: 50.0 mg/kg/injection, schedule: Q01DX009 (ip), vehicle: saline with Tween-80
[5] = dose: 100.0 mg/kg/injection, schedule: Q01DX009 (ip), vehicle: saline with Tween-80
[6] = dose: 200.0 mg/kg/injection, schedule: Q01DX009 (ip), vehicle: saline with Tween-80
[7] = dose: 400.0 mg/kg/injection, schedule: Q01DX009 (ip), vehicle: saline with Tween-80

Measured: T/C

Cn1cnc([N+](=O)[O-])c1Sc1nc(N)nc2c1ncn2C1CC(O)C(CO)O1 (stereo unspecified)
active: dose: 6.25 mg/kg/injection, schedule: Q01DX005 (ip), vehicle: Klucel (hydroxypropylcellulose) (HPC) 155 % of control | [1] 161 % of control
inactive: [2] 114 % of control and 95 % of control | dose: 50.0 mg/kg/injection, schedule: Q01DX005 (ip), vehicle: Klucel (hydroxypropylcellulose) (HPC) 86 % of control | [3] 107 % of control | dose: 150.0 mg/kg/injection, schedule: Q01DX009 (ip), vehicle: saline 107 % of control | dose: 200.0 mg/kg/injection, schedule: Q01DX009 (ip), vehicle: saline 109 % of control and 110 % of control | dose: 200.0 mg/kg/injection, schedule: Q04DX003 (ip), vehicle: saline 118 % of control | dose: 400.0 mg/kg/injection, schedule: Q01DX009 (ip), vehicle: saline 91 % of control and 116 % of control | dose: 400.0 mg/kg/injection, schedule: Q04DX003 (ip), vehicle: saline 113 % of control

CCOC(=O)Cn1nc(-c2ccc([N+](=O)[O-])o2)oc1=O
inactive: [4] 97 % of control | [5] 95 % of control | [6] 103 % of control

Cc1nc(C(=O)O)c(=O)[nH]c1C
inactive: dose: 50.0 mg/kg/injection, schedule: Q01DX009 (ip), vehicle: water 114 % of control | dose: 50.0 mg/kg/injection, schedule: Q04DX003 (ip), vehicle: water 94 % of control | dose: 100.0 mg/kg/injection, schedule: Q01DX009 (ip), vehicle: water 122 % of control | dose: 100.0 mg/kg/injection, schedule: Q04DX003 (ip), vehicle: water 105 % of control | dose: 200.0 mg/kg/injection, schedule: Q01DX009 (ip), vehicle: water 121 % of control | dose: 200.0 mg/kg/injection, schedule: Q04DX003 (ip), vehicle: water 100 % of control

O=C(O)c1ccc(C(Cl)(Cl)Cl)cc1
inactive: dose: 18.75 mg/kg/injection, schedule: Q01DX009 (ip), vehicle: Klucel (hydroxypropylcellulose) (HPC) 95 % of control | dose: 33.0 mg/kg/injection, schedule: Q01DX009 (ip), vehicle: saline with Tween-80 116 % of control | [4] 112 % of control | dose: 75.0 mg/kg/injection, schedule: Q01DX009 (ip), vehicle: saline with Tween-80 108 % of control | dose: 150.0 mg/kg/injection, schedule: Q01DX009 (ip), vehicle: saline with Tween-80 123 % of control

COc1ccc2c(c1)CCC1C2CCC2(C)/C(=N/O)C(Cl)C(O)C12 (stereo unspecified)
inactive: dose: 6.25 mg/kg/injection, schedule: Q01DX001 (ip), vehicle: saline with Tween-80 100 % of control | dose: 12.5 mg/kg/injection, schedule: Q01DX001 (ip), vehicle: saline with Tween-80 109 % of control | dose: 25.0 mg/kg/injection, schedule: Q01DX001 (ip), vehicle: saline with Tween-80 97 % of control

Cc1cc([N+](=O)[O-])cc(C)c1OC(=O)c1ccc(N=C(N)N)cc1
inactive: [1] 93 % of control | dose: 12.5 mg/kg/injection, schedule: Q01DX009 (ip), vehicle: saline 101 % of control | dose: 12.5 mg/kg/injection, schedule: Q04DX003 (ip), vehicle: saline 104 % of control | [2] 97 % of control | dose: 25.0 mg/kg/injection, schedule: Q04DX003 (ip), vehicle: saline 102 % of control | [3] 95 % of control | dose: 50.0 mg/kg/injection, schedule: Q04DX003 (ip), vehicle: saline 101 % of control | dose: 100.0 mg/kg/injection, schedule: Q04DX003 (ip), vehicle: saline 95 % of control

Cc1ccc(CCCCCCCCCCCC(=O)O)cc1
inactive: [5] 96 % of control | dose: 100.0 mg/kg/injection, schedule: Q04DX003 (ip), vehicle: saline with Tween-80 95 % of control | [6] 92 % of control | dose: 200.0 mg/kg/injection, schedule: Q04DX003 (ip), vehicle: saline with Tween-80 100 % of control | [7] 107 % of control | dose: 400.0 mg/kg/injection, schedule: Q04DX003 (ip), vehicle: saline with Tween-80 110 % of control

CC(C)(O)/C=C/C(=O)C(C)(O)C1C(O)CC2(C)C3CC=C4C(CC(O)C(O)C4(C)C)C3(C)C(=O)CC12C (stereo unspecified)
inactive: dose: 0.25 mg/kg/injection, schedule: Q01DX010 (ip), vehicle: carboxymethylcellulose (CMC) 100 % of control | dose: 0.5 mg/kg/injection, schedule: Q01DX010 (ip), vehicle: carboxymethylcellulose (CMC) 105 % of control | dose: 1.0 mg/kg/injection, schedule: Q01DX010 (ip), vehicle: carboxymethylcellulose (CMC) 95 % of control | dose: 2.0 mg/kg/injection, schedule: Q01DX010 (ip), vehicle: carboxymethylcellulose (CMC) 110 % of control

COc1ccc(C2=CC(=O)C(c3ccc(OC)cc3)=CC2=O)cc1
inactive: dose: 5.0 mg/kg/injection, schedule: Q01DX009 (ip), vehicle: gum acacia 87 % of control | dose: 20.0 mg/kg/injection, schedule: Q01DX009 (ip), vehicle: gum acacia 91 % of control | dose: 20.0 mg/kg/injection, schedule: Q04DX003 (ip), vehicle: gum acacia 100 % of control | dose: 40.0 mg/kg/injection, schedule: Q01DX009 (ip), vehicle: gum acacia 95 % of control | dose: 40.0 mg/kg/injection, schedule: Q04DX003 (ip), vehicle: gum acacia 90 % of control | dose: 80.0 mg/kg/injection, schedule: Q01DX009 (ip), vehicle: gum acacia 91 % of control | dose: 80.0 mg/kg/injection, schedule: Q04DX003 (ip), vehicle: gum acacia 95 % of control

N=[N+]=CC(=O)OCC(N)C(=O)O (stereo unspecified)
active: dose: 3.13 mg/kg/injection, schedule: Q01DX010 (ip), vehicle: saline 150 % of control | dose: 6.25 mg/kg/injection, schedule: Q01DX010 (ip), vehicle: saline 150 % of control and 165 % of control | dose: 12.5 mg/kg/injection, schedule: Q01DX010 (ip), vehicle: saline 195 % of control and 200 % of control
inactive: dose: 10.0 mg/kg/injection, schedule: Q01DX010 (ip), vehicle: water 120 % of control | dose: 15.0 mg/kg/injection, schedule: Q01DX010 (ip), vehicle: water 120 % of control | dose: 25.0 mg/kg/injection, schedule: Q01DX010 (ip), vehicle: saline 115 % of control

CCOC1(OCC)OC(c2ccccc2)=C(C#N)C(/C=C\c2ccccc2)C1(OCC)OCC (stereo unspecified)
inactive: [4] 92 % of control | [5] 92 % of control | [6] 90 % of control

Cc1ccc2c(c1)nc1c3ccccc3nc(-c3ccccc3N)n21
inactive: [5] 97 % of control | [6] 115 % of control | [7] 108 % of control

CN(C)c1nc(N(C)C)nc(N(C)C)n1
inactive: dose: 18.8 mg/kg/injection, schedule: Q01DX010 (ip), vehicle: saline 100 % of control | dose: 20.0 mg/kg/injection, schedule: Q01DX009 (ip), vehicle: Klucel (hydroxypropylcellulose) (HPC) 95 % of control | dose: 20.0 mg/kg/injection, schedule: Q01DX009 (ip), vehicle: saline with Tween-80 104 % of control | dose: 25.0 mg/kg/injection, schedule: Q01DX001 (ip), vehicle: Klucel (hydroxypropylcellulose) (HPC) 100 % of control | dose: 25.0 mg/kg/injection, schedule: Q04DX002 (ip), vehicle: Klucel (hydroxypropylcellulose) (HPC) 101 % of control and 107 % of control | dose: 25.0 mg/kg/injection, schedule: Q04DX003 (ip), vehicle: Klucel (hydroxypropylcellulose) (HPC) 96 % of control and 100 % of control | dose: 37.5 mg/kg/injection, schedule: Q01DX010 (ip), vehicle: saline 100 % of control and 110 % of control | dose: 40.0 mg/kg/injection, schedule: Q01DX009 (ip), vehicle: Klucel (hydroxypropylcellulose) (HPC) 100 % of control | dose: 40.0 mg/kg/injection, schedule: Q01DX009 (ip), vehicle: saline with Tween-80 113 % of control | dose: 59.0 mg/kg/injection, schedule: Q01DX009 (ip), vehicle: saline with Tween-80 107 % of control | dose: 75.0 mg/kg/injection, schedule: Q01DX010 (ip), vehicle: saline 100 % of control and 115 % of control | dose: 80.0 mg/kg/injection, schedule: Q01DX009 (ip), vehicle: Klucel (hydroxypropylcellulose) (HPC) 90 % of control | dose: 80.0 mg/kg/injection, schedule: Q01DX009 (ip), vehicle: saline with Tween-80 99 % of control | dose: 89.0 mg/kg/injection, schedule: Q01DX009 (ip), vehicle: saline with Tween-80 107 % of control | dose: 133.0 mg/kg/injection, schedule: Q01DX009 (ip), vehicle: saline with Tween-80 115 % of control | dose: 150.0 mg/kg/injection, schedule: Q01DX010 (ip), vehicle: saline 100 % of control and 104 % of control | dose: 160.0 mg/kg/injection, schedule: Q01DX009 (ip), vehicle: Klucel (hydroxypropylcellulose) (HPC) 104 % of control | [6] 107 % of control

COc1cccc(/C=N/NC(=O)C[n+]2ccccc2)c1OC
inactive: dose: 12.5 mg/kg/injection, schedule: Q01DX009 (ip), vehicle: saline with Tween-80 104 % of control | dose: 25.0 mg/kg/injection, schedule: Q01DX009 (ip), vehicle: saline with Tween-80 100 % of control | [4] 104 % of control | dose: 50.0 mg/kg/injection, schedule: Q04DX003 (ip), vehicle: saline with Tween-80 100 % of control

Reference: PubChem BioAssay AID328 (DTP/NCI, 2004)
